What was measured:
[1] = biological target: T1, recombinant BCL6 BTB domain (Homo sapiens, UniProt P41182); assay: Intact protein LC–MS labeling of BCL6 BTB domain; assay type: binding; details: 2 μM protein, 10 μM compound, incubation 90 min
T1 construct: The BCL6 BTB domain (5–129) was cloned into the pET28-bdSumo vector; His–bdSumo (N, cleaved yes); made in house; host or cells: E. coli BL21(DE3) (as described for Keap1 BTB)
Source text: A covalent inhibitor of BCL6 that irreversibly binds a tyrosine residue in the BTB domain dimeric interface was previously reported. […] Importantly, the linker had to be long enough to minimize potential steric clashes between bridged homodimers yet short enough to forbid intramolecular binding of subunits from the same homodimer.
Extended Data Fig. 1 SAR of BCL6 targeting PINCHs. a. […] Representative results from 3 independent experiments, and c. These compounds’ structures. Source data

[2] = biological target: T2, BCL6(1–275)–GFP (Homo sapiens, UniProt P41182); assay: BCL6(1–275)–GFP puncta in HEK 293 cells; assay type: cell-based; details: HEK 293 cells overexpressing BCL6(1–275)–GFP
T2 construct: HEK 293 cells expressing GFP fused to BCL6 (residues 1–275); host or cells: HEK 293
Method: Automatic aggregate segmentation was conducted using the surface module with manual threshold fixed for all images of the same experiment (default 2-pixel smoothing, background subtraction with 0.9-μm largest sphere, morphological split with 0.5-μm seed point diameter). Analysis was conducted per cell by manually selecting regions covering the individual cell and not overlapping with neighboring cells.

[3] = test system: HEK 293 cells; assay: Viability measurements, HEK 293 cells; assay type: cell-based; details: HEK 293 cells (lack BCL6 expression), 72 h
Method: Cells were seeded in a transparent-bottom, black 96-well plate, at 15,000 cells per well in sixfold replications. in 90 µl of medium and left to adhere for at least 4 h. The cells were then treated with the respective compound by adding 10 µl of medium–-compound mixture for a final volume of 100 µl in each well. Cell-Titer blue reagent was used to measure viability according to the manufacturer’s instructions. Plate reader measurements were performed on a Tecan Spark Control 10 M fluorescence system.

[4] = biological target: T3, Keap1 and BCL6 (Homo sapiens, UniProt P41182+Q14145); assay: WB of Keap1 and BCL6 in OCI-AML2 cells (hetero-PINCH); assay type: cell-based; design: endogenous in cells; host or cells: OCI-AML2; details: 20 h
Method: (§1) Cells were incubated with DMSO at 0.1% or with compound in concentrations ranging 10–20,000 nM for 20 h unless indicated differently. Following incubation, lysis was performed in RIPA buffer and the samples were measured for total protein quantification by BCA assay (Thermo Fisher Scientific, 23225). Then, 20–40 μg of each sample was loaded and run on an SDS–PAGE gel, before transferring onto a nitrocellulose membrane using a Trans-Blot Turbo system (Bio-Rad) and blocking using a 5% BSA in TBS-T (w/v) solution for 1 h at room temperature. Incubation with primary antibodies (mouse anti-BCL-6 (sc-7388, Santa Cruz, 1:500; overnight at 4 °C), mouse anti-Keap1 (sc-365626, Santa Cruz, 1:500; overnight at 4 °C), rabbit anti-LDHA (4H18L6, Thermo Fisher, 1:1,000; overnight at 4 °C), mouse anti-NQO2 (sc-271665, Santa Cruz, 1:500; overnight at 4 °C), rabbit anti-c-Myc (5605, Cell Signaling, 1:1,000; overnight at 4 °C) and mouse anti-β-actin (3700, Cell Signaling, 1:1,000; 1 h at room temperature) was performed and then the membranes were washed and incubated with a horseradish-peroxidase-conjugated secondary antibody (mouse 7076/rabbit 7074, Cell Signaling) at room temperature for 1 h. Imaging of the chemiluminescence signal was performed using a ChemiDoc XRS+ instrument (Bio-Rad). Primary band quantifications were normalized against β-actin bands.

[5] = biological target: Keap1 (Homo sapiens, UniProt Q14145); assay: WB of Keap1 in HEK 293 cells (hetero-PINCH); assay type: cell-based; design: endogenous in cells; host or cells: HEK 293 (ATCC CRL-1573); details: HEK 293 cells (does not express BCL6), 20 h
Method: as §1

[6] = biological target: T3, Keap1 and BCL6; assay: WB of Keap1 and BCL6 in Mino cells (hetero-PINCH); assay type: cell-based; design: Mino cells that express high levels of BCL6; endogenous in cells; host or cells: Mino; OCI-AML2; details: 20 h
Method: as §1

[7] = biological target: T4, LDHA (Homo sapiens, UniProt P00338); assay: Immunostaining of LDHA in U2OS cells; assay type: cell-based; design: endogenous in cells; host or cells: U2OS (ATCC HTB-96); details: 5µM, 20 hours
Method: For spinning disk confocal microscopy, cells were allowed to adhere to a 14-mm glass-bottom plate (MatTek P35G-1.5-14-C), followed by fixation with 3.7% formaldehyde for 5 min and permeabilization with 0.1% Triton X-100 for 10 min. The cells were then blocked with 5% BSA for 60 min at room temperature. Cells were stained with primary antibody, at a concentration of 1:100, for 3 h at room temperature and were then subjected to a secondary antibody conjugated to Alexa Fluor, at a concentration of 1:100–500, for 1 h at room temperature. Lastly, cells were also stained with DAPI for 10 min at room temperature.

[8] = biological target: T4, LDHA; assay: DLS of recombinant LDHA; assay type: biochemical; design: The gene encoding full-length WT human LDHA was cloned into pET28; His6 tag followed by a tobacco etch virus protease cleavage site (N); made in house; host or cells: Escherichia coli BL21(DE3); details: room temperature, over time
Method: DLS samples were prepared in the respective protein’s elution buffer, to which 0.01% Tween was added, along with the compound from a DMSO stock to obtain a final DMSO concentration of 2%. Samples were prepared at room temperature and measured at a constant temperature of 25 °C. All samples were passed through 0.1-μm filters and then placed in a clear-bottom black 384-well plate. DLS data were recorded using a DynaproPlate Reader III (Wyatt Technology). Data were processed with the supplied DYNAMICS software.

Sequence of Keap1 (Q14145 whole entry): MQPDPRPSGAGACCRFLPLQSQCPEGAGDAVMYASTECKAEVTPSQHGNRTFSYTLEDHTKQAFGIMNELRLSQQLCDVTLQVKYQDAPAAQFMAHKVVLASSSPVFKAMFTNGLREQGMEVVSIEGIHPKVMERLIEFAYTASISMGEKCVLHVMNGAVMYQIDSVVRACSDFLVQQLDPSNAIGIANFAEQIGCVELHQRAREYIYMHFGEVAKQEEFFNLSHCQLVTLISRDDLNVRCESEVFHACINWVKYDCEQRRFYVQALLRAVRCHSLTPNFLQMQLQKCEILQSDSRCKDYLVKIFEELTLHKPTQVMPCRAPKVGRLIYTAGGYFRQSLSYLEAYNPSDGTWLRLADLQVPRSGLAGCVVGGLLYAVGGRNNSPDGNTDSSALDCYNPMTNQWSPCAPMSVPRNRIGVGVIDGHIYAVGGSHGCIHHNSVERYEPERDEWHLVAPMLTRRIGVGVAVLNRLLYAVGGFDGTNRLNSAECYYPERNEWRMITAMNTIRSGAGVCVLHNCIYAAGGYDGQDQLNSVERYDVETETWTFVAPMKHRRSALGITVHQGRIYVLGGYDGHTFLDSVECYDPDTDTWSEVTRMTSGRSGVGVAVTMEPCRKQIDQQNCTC

CNC(=O)COc1cc2cc(Nc3cc(NCc4cccc(S(=O)(=O)F)c4)ccc3Cl)cc(OC)c2n(C)c1=O [w8001]
labeling of recombinant BCL6 BTB domain by intact protein LC–MS [1]: 100%
BCL6–GFP puncta formation [2]: no such puncta
effect on viability [3]: no compound affected the viability

COc1cc(Nc2cc(NCc3cccc(S(=O)(=O)F)c3)ccc2Cl)cc2cc(OCC(=O)NCCOCCOCCOCCOCCOCCOCCOCCOCCOCCOCCOCCOCCNC(=O)[C@]34CCC(C)(C)C[C@H]3[C@H]3C(=O)C=C5[C@@]6(C)C=C(C#N)C(=O)C(C)(C)[C@@H]6CC[C@@]5(C)[C@]3(C)CC4)c(=O)n(C)c12 [EL230]
Keap1 and BCL6 levels (WB) [4]: Keap1 and BCL6 were downregulated simultaneously
Keap1 level (WB) [5]: Keap1 remained unchanged
Keap1 and BCL6 levels in soluble/insoluble phase (WB) [6]: reduction in both Keap1 and BCL6 levels in the soluble phase

Cc1nc2ccc(NC(=O)CC(NC(=O)CCCc3ccc(CC(C(=O)O)C(=O)O)cc3)C(=O)NCCOCCOCCOCCOCCNC(=O)C(CC(=O)Nc3ccc4nc(C)sc4c3)NC(=O)CCCc3ccc(CC(C(=O)O)C(=O)O)cc3)cc2s1 (centres unmarked) [OS-47B]
LDHA localization (immunostaining) [7]: no effect on LDHA localization
formation of larger species (DLS) [8]: formation of larger species over time

Reference: article PMC13503280, “A pharmacological modality to sequester homomeric proteins” (Nature Chemical Biology, 2026)
